Measured values as given in PMC9134086, “Inhibition of Dipeptidyl Peptidase-4 by Flavonoids: Structure–Activity Relationship, Kinetics and Interaction Mechanism” (Frontiers in Nutrition, 2022).

Molecular target: T1, DPP-4 (human recombinant) (Homo sapiens, UniProt P27487)
T1 construct: purchased Sigma Aldrich D3446
Experiment: In vitro assay for DPP-4 inhibitory activity (fluorescence, Gly-Pro-AMC);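 also: fluorescence of released AMC (excitation 360 nm, emission 460 nm) followed kinetically over 30 min at 37 °C in Tris-HCl pH 8.0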
Type: biochemical
Conditions: DPP-4 inhibition, fluorescence method

T1 sequence (P27487 whole entry): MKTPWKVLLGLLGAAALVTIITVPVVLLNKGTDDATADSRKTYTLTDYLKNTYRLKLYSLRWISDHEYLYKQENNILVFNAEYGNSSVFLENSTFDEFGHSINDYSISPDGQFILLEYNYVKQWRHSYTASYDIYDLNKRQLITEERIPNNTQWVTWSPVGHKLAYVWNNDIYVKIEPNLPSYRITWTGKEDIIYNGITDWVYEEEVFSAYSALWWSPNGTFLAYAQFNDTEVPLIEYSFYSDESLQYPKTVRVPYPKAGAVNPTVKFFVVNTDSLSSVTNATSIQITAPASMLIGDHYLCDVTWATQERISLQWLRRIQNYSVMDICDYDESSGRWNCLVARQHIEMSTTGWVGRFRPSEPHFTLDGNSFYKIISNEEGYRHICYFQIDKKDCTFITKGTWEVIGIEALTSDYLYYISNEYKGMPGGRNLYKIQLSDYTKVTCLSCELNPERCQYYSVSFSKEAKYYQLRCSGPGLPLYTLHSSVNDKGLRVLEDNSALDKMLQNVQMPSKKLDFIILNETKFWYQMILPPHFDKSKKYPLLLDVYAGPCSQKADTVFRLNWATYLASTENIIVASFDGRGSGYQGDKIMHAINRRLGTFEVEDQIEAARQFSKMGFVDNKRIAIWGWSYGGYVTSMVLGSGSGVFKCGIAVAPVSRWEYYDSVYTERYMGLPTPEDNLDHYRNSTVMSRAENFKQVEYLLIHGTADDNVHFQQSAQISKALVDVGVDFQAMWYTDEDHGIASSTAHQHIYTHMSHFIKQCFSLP

Molecule	IC50 [µM]
O=c1c(O)c(-c2cc(O)c(O)c(O)c2)oc2cc(O)cc(O)c12 [E19, Myricetin]	< 200

Same assay, conditions: flavonoid 200 μM; mean ± SD, three independent experiments

Molecule	% Inhibition at 200μM [%]
COc1ccc(CCC(=O)c2c(O)cc(O[C@@H]3O[C@H](CO)[C@@H](O)[C@H](O)[C@H]3O[C@@H]3O[C@@H](C)[C@H](O)[C@@H](O)[C@H]3O)cc2O)cc1O [G2, Neosperidin dihydrochalcone]	17.15 ± 0.23
Myricitrin [E20]	39.8 ± 0.78

Same assay, conditions: flavonoid 200 μM; mean ± SD, three independent experiments; read-out: % Inhibition at 200μM

inhibition at 200 µM [%]	Molecule
26.1 ± 3.07	O=c1cc(-c2ccccc2)oc2cc(O)cc(O)c12 [A3, Chrysin]
22.2 ± 1.22	COc1ccc(-c2cc(=O)c3c(O)cc(O)cc3o2)cc1O [A4, Diosmetin]
16.4 ± 1.73	COc1ccc(-c2cc(=O)c3c(O)cc(O[C@@H]4O[C@H](CO[C@@H]5O[C@@H](C)[C@H](O)[C@@H](O)[C@H]5O)[C@@H](O)[C@H](O)[C@H]4O)cc3o2)cc1O [A5, Diosmin]
42.63 ± 0.33	O=c1cc(-c2ccc(O)c(O)c2)oc2cc(O)c([C@@H]3O[C@H](CO)[C@@H](O)[C@H](O)[C@H]3O)c(O)c12 [A6, Isoorientin]
42.4 ± 1.23	O=c1cc(-c2ccc(O)cc2)oc2cc(O)c([C@@H]3O[C@H](CO)[C@@H](O)[C@H](O)[C@H]3O)c(O)c12 [A7, Isovitexin]
47.5 ± 0.89	O=c1cc(-c2ccc(O)c(O)c2)oc2cc(O)cc(O)c12 [A8, Luteolin]
35.65 ± 0.11	O=C(O)C1OC(Oc2cc(O)c3c(=O)cc(-c4ccc(O)c(O)c4)oc3c2)C(O)C(O)C1O (centres unmarked) [A9, Luteolin 7-O-glucuronide]
45.6 ± 0.62	O=c1cc(-c2ccc(O)c(O)c2)oc2cc(O[C@@H]3O[C@H](CO)[C@@H](O)[C@H](O)[C@H]3O)cc(O)c12 [A10, Luteoloside]
14.2 ± 1.06	COc1ccc(-c2cc(=O)c3c(OC)c(OC)c(OC)c(OC)c3o2)cc1 [A13, Tangeretin]
45.9 ± 1.48	O=c1cc(-c2ccc(OC3OC(CO)C(O)C(O)C3O)cc2)oc2c(C3OC(CO)C(O)C(O)C3O)c(O)cc(O)c12 (centres unmarked) [A16, Vitexin 4'-O-glucoside]
14.3 ± 1.48	COc1ccc(-c2coc3cc(O)cc(O)c3c2=O)cc1 [B1, Biochanin A]
43 ± 2.41	COc1ccc(-c2coc3cc(O)ccc3c2=O)cc1O [B2, Calycosin]
19.2 ± 3.44	O=c1c(-c2ccc(O)cc2)coc2cc(O)ccc12 [B3, Daidzein]
17.6 ± 0.19	COc1ccc(-c2coc3cc(O)ccc3c2=O)cc1 [B4, Formononetin]
15.3 ± 0.21	O=c1c(-c2ccc(O)cc2)coc2cc(O)cc(O)c12 [B5, Genistein]
20.8 ± 1.92	COc1cc(O)c2c(=O)cc(-c3ccc(O)cc3)oc2c1 [B6, Genkwanin]
30.9 ± 1.22	O=C1c2c(O)cc(O)cc2O[C@H](c2ccc(O)cc2O)[C@H]1O [C1, Dihydromorin]
20.6 ± 0.36	O=C1c2c(O)cc(O)cc2O[C@H](c2cc(O)c(O)c(O)c2)[C@H]1O [C2, Dihydromyricetin]
< 10	COc1ccc([C@@H]2CC(=O)c3c(O)cc(O)cc3O2)cc1O [C3, Hesperetin]
17.1 ± 0.94	O=C1C[C@@H](c2ccc(O)cc2)Oc2cc(O)ccc21 [C5, Liquiritigenin]
< 10	Oc1cc(O)c2c(c1)OC(c1ccc(O)c(O)c1)C(O)C2 (centres unmarked) [D1, Catechin]
< 10	Oc1cc(O)c2c(c1)O[C@H](c1ccc(O)c(O)c1)[C@H](O)C2 [D2, Epicatechin]
< 10	O=C(O[C@@H]1Cc2c(O)cc(O)cc2O[C@@H]1c1cc(O)c(O)c(O)c1)c1cc(O)c(O)c(O)c1 [D3, Epigallocatechin gallate]

inhibition at 200 µM [%]	Molecule
27.1 ± 0.42	O=c1c(O[C@@H]2O[C@@H](CO)[C@H](O)[C@H]2O)c(-c2ccc(O)c(O)c2)oc2cc(O)cc(O)c12 [E1, Avicularin]
38.26 ± 0.36	O=c1c(O)c(-c2ccccc2)oc2cc(O)cc(O)c12 [E2, Galangin]
36.9 ± 1.13	O=c1c(O[C@@H]2O[C@H](CO)[C@@H](O)[C@H](O)[C@H]2O)c(-c2ccc(O)c(O)c2)oc2cc(O)cc(O)c12 [E5, Isoquercitrin]
38.6 ± 1.41	COc1cc(-c2oc3cc(O)cc(O)c3c(=O)c2OC2OC(CO)C(O)C(O)C2O)ccc1O (centres unmarked) [E7, Isorhamnetin 3-O-glucoside]
40.6 ± 0.42	COc1cc(-c2oc3cc(O)cc(O)c3c(=O)c2OC2OC(CO)C(O)C(O)C2OC2OC(C)C(O)C(O)C2O)ccc1O (centres unmarked) [E8, Isorhamnetin 3-O-neohesperidin]
15.7 ± 0.58	COc1ccc(-c2oc3cc(O)cc(O)c3c(=O)c2O)cc1 [E9, Kaempferide]
19.3 ± 0.47	C[C@@H]1O[C@@H](Oc2cc(O)c3c(=O)c(O[C@@H]4O[C@@H](C)[C@H](O)[C@@H](O)[C@H]4O)c(-c4ccc(O)cc4)oc3c2)[C@H](O)[C@H](O)[C@H]1O [E10, Kaempferitrin]
32.23 ± 0.19	O=c1c(O)c(-c2ccc(O)cc2)oc2cc(O)cc(O)c12 [E11, Kaempferol]
46.3 ± 1.57	O=c1c(OC2OC(CO)C(O)C(O)C2O)c(-c2ccc(O)cc2)oc2cc(O)cc(O)c12 (centres unmarked) [E13, Kaempferol 3-O-galactoside]
36.83 ± 0.01	CC1OC(OCC2OC(Oc3c(-c4ccc(O)cc4)oc4cc(O)cc(O)c4c3=O)C(O)C(O)C2O)C(O)C(O)C1O (centres unmarked) [E14, Kaempferol 3-O-rutinoside]
43.2 ± 1.48	O=c1c(OC2OC(CO)C(O)C(O)C2OC2OC(CO)C(O)C(O)C2O)c(-c2ccc(O)cc2)oc2cc(O)cc(O)c12 (centres unmarked) [E15, Kaempferol 3-O-sophoroside]
37.2 ± 0.64	O=c1c(O)c(-c2ccc(OC3OC(CO)C(O)C(O)C3O)cc2)oc2cc(O)cc(O)c12 (centres unmarked) [E16, Kaempferol 4'-O-glucoside]
42.8 ± 0.91	O=c1c(O)c(-c2ccc(O)cc2O)oc2cc(O)cc(O)c12 [E18, Morin]
45.6 ± 0.78	COc1c(-c2ccc(O)c(O)c2)oc2cc(O)cc(O)c2c1=O [E22, 3-O-Methylquercetin]
33.9 ± 1.07	O=c1c(OC2OC(CO)C(O)C(O)C2O)c(-c2ccc(O)c(O)c2)oc2cc(OC3OC(COC4OC(CO)C(O)C(O)C4O)C(O)C(O)C3O)cc(O)c12 (centres unmarked) [E24, Quercetin 3-O-glu-7-O-gentiobioside]
48.96 ± 0.12	CC1OC(Oc2cc(O)c3c(=O)c(O)c(-c4ccc(O)c(O)c4)oc3c2)C(O)C(O)C1O (centres unmarked) [E25, Quercetin 7-O-rhamnoside]
22.2 ± 0.63	COc1cc(O)c2c(=O)c(O)c(-c3ccc(O)c(O)c3)oc2c1 [E27, Rhamnetin]
42.7 ± 1.28	C[C@@H]1O[C@@H](OC[C@H]2O[C@@H](Oc3c(-c4ccc(O)c(O)c4)oc4cc(O)cc(O)c4c3=O)[C@H](O)[C@@H](O)[C@@H]2O)[C@H](O)[C@H](O)[C@H]1O [E28, Rutin]
18.8 ± 0.4	Oc1cc(O)c2cc(O)c(-c3ccc(O)c(O)c3)[o+]c2c1 [F1, Cyanidin]
13.7 ± 2.07	COc1cc(-c2[o+]c3cc(O)cc(OC4OC(CO)C(O)C(O)C4O)c3cc2OC2OC(CO)C(O)C(O)C2O)cc(OC)c1O (centres unmarked) [F4, Malvin]
< 10	Oc1ccc(-c2[o+]c3cc(O)cc(O)c3cc2O)cc1 [F5, Pelargonidin]
< 10	O=C(CCc1ccc(O)cc1)c1c(O)cc(O)cc1O[C@@H]1O[C@H](CO)[C@@H](O)[C@H](O)[C@H]1O [G4, Phlorizin]

Molecule	inhibition at 200 µM [%]
C[C@@H]1O[C@@H](Oc2c(-c3ccc(O)c(O)c3)oc3cc(O)cc(O)c3c2=O)[C@H](O)[C@H](O)[C@H]1O [E26, Quercitrin]	47.65 ± 0.36

Same assay, conditions: read-out: % Inhibition at 200μM

Molecule	inhibition at 200 µM [%]
C[C@@H]1O[C@@H](OC[C@H]2O[C@@H](Oc3cc(O)c4c(c3)O[C@H](c3ccc(O)cc3)CC4=O)[C@H](O)[C@@H](O)[C@@H]2O)[C@H](O)[C@H](O)[C@H]1O [A11, Narirutin]	13.97 ± 0.13
O=c1cc(-c2ccc(O)c(O)c2)oc2c([C@@H]3O[C@H](CO)[C@@H](O)[C@H](O)[C@H]3O)c(O)cc(O)c12 [A12, Orientin]	38.6 ± 2.1
O=c1cc(-c2ccc(O)cc2)oc2c([C@@H]3O[C@H](CO)[C@@H](O)[C@H](O)[C@H]3O)c(O)cc(O)c12 [A14, Vitexin]	27 ± 1.35
COc1ccc(C2CC(=O)c3c(O)cc(OC4OC(COC5OC(C)C(O)C(O)C5O)C(O)C(O)C4O)cc3O2)cc1O (centres unmarked) [C4, Hesperidin]	< 10
O=c1c(O)c(-c2ccc(O)cc2)oc2c(O)c(O)cc(O)c12 [E3, Herbacetin]	25.7 ± 1.82
COc1cc(-c2oc3cc(O)cc(O)c3c(=O)c2O)ccc1O [E6, Isorhamnetin]	29.4 ± 1.52
O=c1c(O)c(-c2ccc(O)cc2)oc2cc(OC3OC(CO)C(O)C(O)C3O)cc(O)c12 (centres unmarked) [E17, Kaempferol 7-O-glucoside]	48.8 ± 1.07
COc1cc(-c2[o+]c3cc(O)cc(O)c3cc2OC2OC(CO)C(O)C(O)C2O)cc(OC)c1O (centres unmarked) [F3, Malvidin 3-O-glucoside]	15 ± 2.42
O=C(CCc1ccc(O)cc1)c1c(O)cc(O)cc1O [G3, Phloretin]	17.8 ± 1.21

Molecular target: T1, DPP-4 (human recombinant)
Experiment: Fluorescence quenching experiments (Stern-Volmer, binding constant, thermodynamic parameters);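 also: intrinsic DPP-4 fluorescence emission scanned 290–500 nm, corrected for flavonoid background and inner-filter absorbance, compared without versus with flavonoid quencher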
Conditions: 310 K

Molecule	ΔG (Gibbs free-energy change) [kcal/mol]
O=c1c(O)c(-c2cc(O)c(O)c(O)c2)oc2cc(O)cc(O)c12 [E19, Myricetin]	-5.946
